Source: ChEMBL document CHEMBL1156726, “Discovery of a potent and selective aurora kinase inhibitor” (Bioorg Med Chem Lett, 2008)

Legend:
Aurora kinase A = biological target: T1, Aurora kinase A (Homo sapiens, UniProt O14965)
T1 sequence (O14965 whole entry): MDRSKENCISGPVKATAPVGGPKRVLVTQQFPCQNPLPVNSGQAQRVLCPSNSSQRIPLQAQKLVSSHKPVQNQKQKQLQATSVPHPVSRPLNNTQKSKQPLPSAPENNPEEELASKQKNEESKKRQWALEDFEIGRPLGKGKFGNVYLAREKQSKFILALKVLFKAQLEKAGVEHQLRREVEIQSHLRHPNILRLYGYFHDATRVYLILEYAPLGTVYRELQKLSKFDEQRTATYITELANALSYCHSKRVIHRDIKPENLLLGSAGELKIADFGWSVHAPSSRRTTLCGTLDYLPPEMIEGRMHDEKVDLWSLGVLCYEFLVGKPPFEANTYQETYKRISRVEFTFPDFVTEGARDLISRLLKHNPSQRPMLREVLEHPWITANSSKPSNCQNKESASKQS
Description: Inhibition of Aurora A by radiometric assay

HCT-116 [1] = assay: Cell cycle arrest in human HCT116 cells assessed as accumulation of 4N DNA phase after 16 hrs by FACS; conditions: HCT-116, 16 h
HCT-116 [2] = assay: Antiproliferative activity against human HCT116 cells assessed as BrdU incorporation; format: functional, cell-based
Aurora kinase B = Aurora kinase B (Homo sapiens, UniProt Q96GD4); assay: Inhibition of Aurora B by radiometric assay
HCT-116 [3] = assay: Decrease in histone H3 phosphorylation in human HCT116 cells after 16 hrs by Western blot; conditions: HCT-116, 16 h
Mus musculus [4] = assay: Decrease in histone H3 phosphorylation in human HCT116 cells xenografted mouse at 50 mg/kg, ip after 10 hrs; format: functional; conditions: HCT-116, ip, route intraperitoneal
Mus musculus [5] = assay: Decrease in histone H3 phosphorylation in human HCT116 cells xenografted mouse at 100 mg/kg, ip after 10 hrs; format: functional; conditions: HCT-116, ip, route intraperitoneal
Mus musculus [6] = assay: Decrease in histone H3 phosphorylation in human HCT116 cells xenografted mouse at 50 mg/kg, ip after 6 hrs; format: functional; conditions: HCT-116, ip, route intraperitoneal
Mus musculus [7] = assay: Decrease in histone H3 phosphorylation in human HCT116 cells xenografted mouse at 100 mg/kg, ip after 6 hrs; format: functional; conditions: HCT-116, ip, route intraperitoneal
[8] = Drug level in HCT116 xenografted mouse tumor at 100 mg/kg, ip after 6 hrs; format: ADME, organism-based, Neoplasm; design: dose 100 mg/kg, route intraperitoneal; conditions: human, tumor (HCT116 xenograft), read-out: Drug uptake
[9] = Drug level in HCT116 xenografted mouse tumor at 100 mg/kg, ip after 10 hrs; format: ADME, organism-based, Neoplasm; design: dose 100 mg/kg, route intraperitoneal; conditions: human, tumor (HCT116 xenograft), read-out: Drug uptake
[10] = Drug level in HCT116 xenografted mouse tumor at 50 mg/kg, ip after 10 hrs; format: ADME, organism-based, Neoplasm; design: dose 50 mg/kg, route intraperitoneal; conditions: human, tumor (HCT116 xenograft), read-out: Drug uptake
[11] = Drug level in HCT116 xenografted mouse tumor at 50 mg/kg, ip after 6 hrs; format: ADME, organism-based, Neoplasm; design: dose 50 mg/kg, route intraperitoneal; conditions: human, tumor (HCT116 xenograft), read-out: Drug uptake
HCT-116 [12] = assay: Antitumor activity against human HCT116 cells xenografted in mouse at 100 mg/kg, ip administered twice weekly for 3 weeks; format: functional; conditions: HCT-116, ip, 504 h, route intraperitoneal, read-out: TGI

Chain of Aurora kinase B (Q96GD4 whole entry): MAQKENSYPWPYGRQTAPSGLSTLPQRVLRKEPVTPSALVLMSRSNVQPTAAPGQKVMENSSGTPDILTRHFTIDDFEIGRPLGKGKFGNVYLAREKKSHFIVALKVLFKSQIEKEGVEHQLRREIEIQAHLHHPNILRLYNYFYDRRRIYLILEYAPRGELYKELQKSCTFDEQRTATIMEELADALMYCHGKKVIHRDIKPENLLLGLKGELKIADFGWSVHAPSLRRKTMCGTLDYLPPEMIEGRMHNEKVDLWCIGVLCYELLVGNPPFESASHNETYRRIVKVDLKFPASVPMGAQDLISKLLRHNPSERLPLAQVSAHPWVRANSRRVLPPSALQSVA

| SMILES | IC50 (Aurora kinase A) | EC50 (HCT-116 [1]) | EC50 (HCT-116 [2]) | IC50 (Aurora kinase B) | EC50 (HCT-116 [3]) | inhibition in vivo at 50 mg/kg (Mus musculus [4]) | inhibition in vivo at 50 mg/kg (Mus musculus [6]) | other results |
| --- | --- | --- | --- | --- | --- | --- | --- | --- |
| O=C(Nc1cccc(C(F)(F)F)c1)c1ccc(CCNc2ncnc3ccsc23)cc1 | > 20000 nM | – | – | – | – | – | – | – |
| O=C(Nc1ccc(CCNc2ncnc3ccsc23)cc1)Nc1cccc(C(F)(F)F)c1 | 1200 nM | – | – | – | – | – | – | – |
| O=C(Nc1cccc(CCNc2ncnc3ccsc23)c1)Nc1cccc(C(F)(F)F)c1 | > 20000 nM | – | – | – | – | – | – | – |
| O=C(Nc1cccc(C(F)(F)F)c1)Nc1cn(CCNc2ncnc3ccsc23)cn1 | 1200 nM | – | – | – | – | – | – | – |
| O=C(Cc1cccc(C(F)(F)F)c1)Nc1ncc(CCNc2ncnc3ccsc23)s1 | > 10000 nM | – | – | 580 nM | – | – | – | IC50 (HCT-116 [2]): > 10000 nM |
| O=C(Nc1ncc(CCNc2ncnc3ccsc23)s1)c1cccc(C(F)(F)F)c1 | 2500 nM | 1000 nM | – | – | – | – | – | – |
| O=C(Nc1ccccc1)Nc1ncc(CCNc2ncnc3ccsc23)s1 | 52 nM | – | – | 120 nM | – | – | – | – |
| CN(C(=O)Nc1ncc(CCNc2ncnc3ccsc23)s1)c1ccccc1 | 7200 nM | – | – | – | – | – | – | IC50 (HCT-116 [2]): > 10000 nM |
| O=C(Nc1ccc(Cl)cc1)Nc1ncc(CCNc2ncnc3ccsc23)s1 | 39 nM | 16 nM | 30 nM | – | – | – | – | – |
| O=C(Nc1ncc(CCNc2ncnc3ccsc23)s1)Nc1ccccc1Cl | 280 nM | > 250 nM | 376 nM | – | – | – | – | – |
| O=C(Nc1cc(CN2CCCC2)cc(C(F)(F)F)c1)Nc1ncc(CCNc2ncnc3ccsc23)s1 | 4 nM | < 16 nM | 6 nM | 22 nM | 16 nM | 0% | 25% | inhibition in vivo at 100 mg/kg (Mus musculus [5]): 25%; concentration at 6 h [8]: 6.2 µM; concentration at 10 h [9]: 8.76 µM; inhibition in vivo at 100 mg/kg (Mus musculus [7]): 50% |
| O=C(Nc1ncc(CCNc2ncnc3ccsc23)s1)NC1CCCCC1 | 270 nM | 63 nM | 72 nM | 61 nM | – | – | – | – |
| O=C(Nc1cccc(C(F)(F)F)c1)Nc1nc(CCNc2ncnc3ccsc23)cs1 | > 20000 nM | – | – | – | – | – | – | – |
| Cc1cccc(NC(=O)Nc2ncc(CCNc3ncnc4ccsc34)s2)c1 | 9 nM | < 16 nM | 19 nM | 54 nM | – | – | – | – |
| O=C(Nc1cccc(C(F)(F)F)c1)Nc1cn(CCNc2ncnc3ccsc23)nn1 | 250 nM | – | – | – | – | – | – | – |
| O=C(Nc1cccc(CCN2CCC2)c1)Nc1ncc(CCNc2ncnc3ccsc23)s1 | 53 nM | 16 nM | 121 nM | 120 nM | 63 nM | 0% | 0% | concentration at 10 h [10]: < 1 µM; concentration at 6 h [11]: < 1 µM |

Now from value to molecule, other results behind:

| IC50 (Aurora kinase A) | EC50 (HCT-116 [1]) | EC50 (HCT-116 [2]) | IC50 (Aurora kinase B) | EC50 (HCT-116 [3]) | SMILES | inhibition in vivo at 50 mg/kg (Mus musculus [4]) | inhibition in vivo at 50 mg/kg (Mus musculus [6]) | other results |
| --- | --- | --- | --- | --- | --- | --- | --- | --- |
| 3200 nM | – | – | – | – | O=C(Nc1ccc(CCNc2ncnc3ccsc23)cc1)c1cccc(C(F)(F)F)c1 | – | – | – |
| 50 nM | 16 nM | 34 nM | – | – | COc1cccc(NC(=O)Nc2ncc(CCNc3ncnc4ccsc34)s2)c1 | – | – | – |
| 41 nM | < 16 nM | 14 nM | – | – | C#Cc1cccc(NC(=O)Nc2ncc(CCNc3ncnc4ccsc34)s2)c1 | – | – | – |
| 4900 nM | – | – | 442 nM | – | O=C(Cc1ncc(CCNc2ncnc3ccsc23)s1)Nc1cccc(C(F)(F)F)c1 | – | – | – |
| – | < 16 nM | – | 14 nM | < 16 nM | O=C(Nc1cccc(C(F)(F)F)c1)Nc1ncc(CCNc2ncnc3ccsc23)s1 | 50% | 75% | inhibition in vivo at 100 mg/kg (Mus musculus [5]): 75%; inhibition in vivo at 100 mg/kg (Mus musculus [7]): 75% |
| 30 nM | 16 nM | 31 nM | 19 nM | 16 nM | O=C(Nc1ncc(CCNc2ncnc3ccsc23)s1)Nc1cccc2cc[nH]c12 | 75% | 75% | concentration at 10 h [10]: 3.67 µM; inhibition in vivo at 100 mg/kg (Mus musculus [5]): 75%; concentration at 6 h [11]: 4.82 µM; concentration at 6 h [8]: 16.9 µM; concentration at 10 h [9]: 4.36 µM; inhibition in vivo at 100 mg/kg (Mus musculus [7]): 75% |
| 96 nM | 16 nM | 24 nM | 13 nM | 16 nM | O=C(Nc1ccc(Cl)c(Cl)c1)Nc1ncc(CCNc2ncnc3ccsc23)s1 | 0% | 0% | concentration at 10 h [10]: 12.5 µM; inhibition in vivo at 100 mg/kg (Mus musculus [5]): 25%; concentration at 6 h [11]: 21.3 µM; concentration at 6 h [8]: 49.5 µM; concentration at 10 h [9]: 54.8 µM; inhibition in vivo at 100 mg/kg (Mus musculus [7]): 25% |
| 23 nM | < 16 nM | 6 nM | 18 nM | < 16 nM | O=C(Nc1cccc(F)c1)Nc1ncc(CCNc2ncnc3ccsc23)s1 | 0% | 25% | concentration at 10 h [10]: < 1 µM; inhibition in vivo at 100 mg/kg (Mus musculus [5]): 25%; concentration at 6 h [11]: 1.2 µM; concentration at 6 h [8]: 101 µM; concentration at 10 h [9]: 19.8 µM; inhibition in vivo at 100 mg/kg (Mus musculus [7]): 75% |
| 11 nM | < 16 nM | 5 nM | 51 nM | < 16 nM | O=C(Nc1ccc(F)c(Cl)c1)Nc1ncc(CCNc2ncnc3ccsc23)s1 | 25% | 75% | concentration at 10 h [10]: 15.6 µM; inhibition in vivo at 100 mg/kg (Mus musculus [5]): 50%; concentration at 6 h [11]: 25.8 µM; concentration at 6 h [8]: 112 µM; concentration at 10 h [9]: 56.1 µM; inhibition in vivo at 100 mg/kg (Mus musculus [7]): 75% |
| – | < 16 nM | – | – | < 16 nM | CS(=O)(=O)O.O=C(Nc1cccc(Cl)c1)Nc1ncc(CCNc2ncnc3ccsc23)s1 [SNS-314 MESYLATE] | 50% | 75% | concentration at 10 h [10]: 3.72 µM; inhibition in vivo at 100 mg/kg (Mus musculus [5]): 75%; concentration at 6 h [11]: 9.07 µM; concentration at 6 h [8]: 28.6 µM; concentration at 10 h [9]: 31.6 µM; inhibition in vivo at 100 mg/kg (Mus musculus [7]): 75%; inhibition in vivo at 100 mg/kg (HCT-116 [12]): 96% |
